Source: US11980613B2, “Methods for reversing HIV latency using BAF complex modulating compounds” (priority 2018, dated 2024)
“Also recorded” adds a separate entry of the source.

What was measured:
[1] = test system: latent HIV-1 in CD4+ T cells from c-ART treated HIV-1 infected patients; assay: HIV latency reversal from patient samples (cell associated HIV Pol mRNA); assay type: cell-based, human
Method: 23. HIV latency reversal from patient samples: All patients were older than 18 years, c-ART treated for at least 3 years, and their viral loads were below 50 copies/ml for more than 12 months with no blips in the past two years. CD4+ T cells from aviremic HIV+ patients were isolated as described previously^55 with minor modifications. Briefly, frozen PBMCs were cultured in RPMI medium over-night to recover. Then next day CD4+ T cells were isolated twice (enriched CD4+ T cells were subjected to a second round of CD4+ T cell enrichment) and left for 6 hrs to recover. Three million cells were treated with DMSO, 10 μM BRD-K80443127, 200 nM Prostratin, 10 μM BRD-K80443127 and 200 nM prostratin, and αCD3/CD28 magnetic beads (at cell:bead ration 1:1) as a positive control in triplicate. After 24 hours cells were lysed in TRIreagent (Sigma), total RNA was isolated with Total RNA Zol-Out (A&A Biotechnology) kit and cDNA was synthetized using random primers and Superscript II Reverse Transcriptase (Life Technologies). Detection of cellular associated pol RNA was performed as described previously (Pol: For […] (SEQ ID NO:15), Rev-[…] (SEQ ID NO: 16))^55. This study was conducted in accordance with the ethical principles of the Declaration of Helsinki. HIV-1 infected patient volunteers were informed and provided signed consent to participate in the study. The study protocol was approved by The Netherlands Medical Ethics Committee (MEC-2012-583). cDNA generated from control and 10 μM BRD-K80443127 treated samples was used to assess expression of BAF target genes biomarker genes-p21 and C-MYC.

HIV-1 5′-LTR (Nuc-1) = assay: FAIRE assay in J-Lat 11.1; assay type: cell-based; details: overnight compound treatment
Method: 24. Activation markers, apoptosis and viability of primary CD4+ T cells: Activation markers, namely CD25 and CD69 were analyzed as described previously^55. Briefly, CD4+ T cells were treated with DMSO, compound, or PMA/Ionomycin for 24 and 72 hours. Cells were collected, washed with PBS and stained for 30 min at 4° C. with α-CD25-APC (17-0259-42, eBioscience) and α-CD69-FITC (11-0699-42, eBioscience). Following two washes with PBS, cells were fixed with 1% HCHO at 4° C. and analyzed by flow cytometry with Becton Dickinson Fortessa instrument. To determine percent of apoptotic cells after treatment cells were stimulated for 24 and 72 hours and stained with anti-AnnexinV-PE (BD Biosciences, cat. 556454) in the presence of 2.5 mM CaCl2 for 20 min at 4° C. Cells were analyzed by Becton Dickinson Fortessa flow cytometer. Data represents the average of six experiments performed on cells from different healthy donors. Viability of ex-vivo infected primary CD4+ cells was determined by flow cytometry on the basis of forward versus side scatter analysis. 25. FAIRE: FAIRE experiment was performed as described, with minor modifications^55. Eighteen hours prior to analysis, J-Lat 11.1 cells were treated with BAFi's where indicated. Cells were fixed for 10 min by adding formaldehyde to a final concentration of 1% at room temperature. Twenty million cells were used per FAIRE experiment. […]

SMILES: CO[C@H]1CN(C)C(=O)c2cc(NC(=O)OC(C)C)ccc2OC[C@H](C)N(Cc2ccc(-c3ccccn3)cc2)C[C@@H]1C [BRD-K80443127]
- cell associated HIV mRNA (Pol), response ([1]; Patient 1 (one patient), single agents, 24 hours): responded; also recorded: significant increase
- potentiation of prostratin activity ([1]; all three patients): significant potentiation of prostratin activity
- cell associated HIV-1 POL ([1]; patient 2 and 3, 24 hours): did not result in a significant increase
- chromatin accessibility at the Nuc-1 position of the 5′ LTR (HIV-1 5′-LTR (Nuc-1)): increased chromatin accessibility
